This is an account of results in a melting point compilation (Tetko et al.; mined from patent text by program, amines drawn as free bases though some values may be those of a salt).

Some results are limits rather than exact numbers.

With `COCC(=O)Nc1ccc(C2=NNC(=O)CC2C)cc1` (centres undefined), the melting point (usually the temperature, or range, at which the solid turns liquid) is 212 °C.
Under `COc1c(F)c(F)c(-c2c3ccccc3c(-c3ccccc3)c3ccccc23)c(F)c1F` stands 153 to 154 °C; under `COc1ccc2c(c1)CCC(=C(O)C(F)F)C2=O`, 52 to 54 °C.
Consider `O=[N+]([O-])c1cccc(C=NC2CCOc3ccccc32)c1` (centres undefined), for which the melting point fell in the range of 117 to 118 °C.
In the case of `C[C@@H](S[C@H]1CO[C@H](/C=C/c2ccc(C(F)(F)F)cc2)OC1)[C@](O)(Cn1cncn1)c1ccc(F)cc1F`, the melting point is 73 to 75 °C.
As for `O=C1c2cc(Cl)ccc2-n2cnc(Cl)c2[C@@H]2CCCN12`, the melting point is 209 to 210 °C.
The molecule `CC1(C)OC(=O)Nc2ccc(-c3cc(F)cc(F)c3)cc21` returned a melting point of 218 to 219 °C.
`O=C(O)c1cn(CCCO)c(=O)c2cc(Cl)ccc12` registered a melting point of 193 °C.
Under `CC(C)(C)c1ccnc(Oc2ccc(CCNc3ncnc4nccnc34)cc2)c1` stands 156 to 157 °C.
Take `CCOC(=O)Cc1nn(Cc2nc3cc(Br)ccc3s2)c(=O)c2ccccc12`: the melting point lay in the range of 160 to 161 °C.
Turning to `COc1ccc(Cl)cc1N1C(=O)NC(=O)C1c1ccccc1` (centres undefined), the melting point was found to be 200 °C.
`CCOC(=O)c1cnn2c1nc(S)c1cnc3c(cnn3CC)c12`: the melting point lay in the range of 238 to 240 °C.
Consider `COC(=O)C(C)(C)c1cn2nc(Cl)c(C)cc2n1`, for which the melting point is 98 to 99 °C.
The result for `O=C1CSC(C(=O)O)Cc2cc3c(cc21)OCO3` (centres undefined) reads 234 to 235 °C.
Under `COC(=O)c1nc(I)cc(N)c1Cl` stands 152 to 153 °C; under `CCC1c2[nH]c3ccccc3c2CC(CO)N1C(=S)SC` (centres undefined), 170 to 172 °C; under `Nc1ccc(N2CCN(c3ccncc3)CC2)cc1`, 204 to 208 °C.
The result for `Cn1nc2nc(C(C)(C)C)[nH]c(=O)c2c1N` reads 285 to 287 °C.
In turn, `CC1=CC(=O)C(C)S(=O)(=O)N1C` (centres undefined) showed a melting point of 73 to 75 °C.
Take `FC(F)(F)c1ccccc1-c1cccc(C=NNC(=S)NN2CCCC2)n1`: the melting point fell in the range of 142 to 146 °C.
`COc1cc(C(C)=O)ccc1OCCCN1CCC(C(O)(c2ccc(F)cc2)c2ccc(F)cc2)C1` (centres undefined) registered a melting point of 44 to 46 °C.
Turning to `CCCOC1=C(c2ccccc2)C(CCC(=O)O)OC1=O` (centres undefined), the melting point is 123 to 125 °C.
The molecule `COc1ccc(-c2nc(Sc3ccc(Cl)c(Cl)c3)[nH]c2-c2ccc(OC)cc2)cc1` showed a melting point of 113 to 115 °C.
The result for `CCCCCCCCCCCCCCCC(=O)Oc1ccc(C(O)C(C)N2CCC(Cc3ccccc3)CC2)cc1` (centres undefined) reads 75 to 77 °C; that for `Nc1ccccc1Oc1cc(-c2ccc(C(F)(F)F)cc2)ncn1`, 188 °C; that for `CCOCc1nc2c(N)nc3c(c2n1CCCCCS(N)(=O)=O)CCCC3`, 203 to 205 °C.
The result for `O=C1CCN(c2nc(=O)c3cccnc3s2)CC1` reads 222 to 225 °C; that for `COc1cc(C(=O)N2CCC(C(=O)C3CCCCC3)CC2)c([N+](=O)[O-])cc1OC`, 120 to 125 °C.
For the molecule `Cc1cc(CN2CCN(c3ccc(C(=O)NC4CC4)cc3F)CC2)cc2c1OC(C)C(=O)N2` (centres undefined), the melting point was 253 °C.
In the case of `Cc1nn(-c2cc(Oc3ccc([N+](=O)[O-])cc3Cl)c(Cl)cc2Cl)c(=O)n1C(F)F`, the melting point fell in the range of 135 to 136 °C.
As to `Cn1c(C(F)(F)F)nc(-c2ccc(F)cc2)c1-c1ccc(S(C)(=O)=O)cc1`, the melting point fell in the range of 187 to 189 °C.
The molecule `O=C(O)COC(c1cccc(-c2nnc(Nc3ccc(Cl)c(Cl)c3)s2)c1)c1cccc(C(F)(F)F)c1` (centres undefined) gave a melting point of 89 to 91 °C.
As to `CN(N)C(=O)NCC(F)F`, the melting point was in the range of 81 to 84 °C.
As to `CSc1cc(C)nc(SC)c1NC(=O)CCN1CCN(CCSc2nc3ccccc3o2)CC1`, the melting point is 110 to 112 °C.
The result for `N#Cc1c(-c2ccc(OCc3ccccc3)cc2)[nH]c2ccc(OCc3ccccc3)cc12` reads 64 to 66 °C.
Under `O=C(NCCCN1C(=O)C2(COc3cc4c(cc32)CCO4)c2ccccc21)c1ccccc1OC(F)(F)F` (centres undefined) stands 65 to 70 °C; under `CCSc1ccc(Cl)c(OS(C)(=O)=O)n1`, 40 to 41 °C.
Molecule `CC(C)c1cc(C(C)C)cc(N(Cc2cccc(NC(=N)c3cccs3)c2)C(=O)CCc2cc(C(C)C)c(O)c(C(C)C)c2)c1` showed a melting point of 144 to 145 °C.
With `CCOc1cc(C(=O)CCCC2CCCCC2)c(OC)cc1C`, the melting point was in the range of 37 to 38 °C.
Molecule `CCCCCCCCCCCCCCOCC(C)(O)CNCCO` (centres undefined) had a melting point of 49.1 to 50.2 °C.
In turn, `O=c1[nH]c2cc(Cl)c(Cl)c(Cn3cncn3)c2[nH]c1=O` showed a melting point of over 320 °C.
Molecule `COc1cc(Nc2c(C#N)cnc3cc(-c4ccc(CCl)cc4)ccc23)c(Cl)cc1Cl` gave a melting point of 236 to 239 °C.
Take `NCCCn1cnc(-c2ccc(F)cc2)c1-c1ccncc1`: the melting point was in the range of 81 to 82 °C.
The result for `O=C(O)CCC(Cc1ccc(Cl)cc1Cl)(C(=O)C=Cc1ccc(Cl)cc1)c1ccccc1` (centres undefined) reads 215 to 226 °C; that for `c1ccc(C2CCNC3=NCCN32)cc1` (centres undefined), 146 °C.
The result for `CCCCCCCCCCCCOc1ccc(C2=C(O)CSC2=O)cc1` reads 173 to 175 °C.
For `Nc1ccc(S(=O)(=O)c2cc(-c3cccc(C(F)(F)F)c3)nc(N3CCCC3)c2)cc1`, the melting point is 219 to 220 °C.
On to `CCCc1nn(C)c2c(=O)[nH]c(-c3cc(S(C)(=O)=O)ccc3OCC)nc12`, for which the melting point is 235 to 236 °C.
The molecule `COc1ccccc1-c1ccc(C(=O)N2Cc3ccc(C(=O)NC(CO)c4ccccc4)n3Cc3ccccc32)cc1` (centres undefined) gave a melting point of 195 to 196 °C.
Take `CC(c1ccccc1[N+](=O)[O-])S(N)(=O)=O` (centres undefined): the melting point lay within 107 to 109 °C.
Under `CN1CCN(c2cccc3c2C[C@H](NC(=O)C2CCCCC2)CC3)CC1` stands 183 to 184 °C.
Molecule `CCOC(=O)c1ccc(NC(=O)C(C)C)c(N)c1` gave a melting point of 147 to 149 °C.
`CCNC(=O)[C@@H](C[C@H](O)[C@H](CC1CCCCC1)NC(=O)OC(C)(C)C)C(C)(C)O` returned a melting point of 155 to 157 °C.
Turning to `CCCCc1oc2ccccc2c1-c1ncc(-c2ccc3cc(OC)ccc3c2)o1`, the melting point was 169 to 171 °C.
The result for `CCOC(=O)c1nc(SC)n2c1c(=O)n(C)c1cc(C(F)(F)F)ccc12` reads 202 to 204 °C; that for `CCCCCC(CC(=O)Nc1cc(C(N)=O)ccc1C(C)(C)C)c1ccc(C(O)CCC)cc1OC` (centres undefined), 153 to 155 °C; that for `Cc1cc(NS(=O)(=O)c2ccccc2)no1`, 107 to 108 °C.
The molecule `Ic1n[nH]c2ccccc12` came in with a melting point of 54 to 55 °C.
As to `CC(C)(C)C(COC(N)=O)(NC(=O)C(=O)c1c[nH]c2cc(Br)ccc12)c1c[nH]c2ccccc12` (centres undefined), the melting point amounted to 145 °C.
The molecule `CC1(C)OC[C@H](CCOc2c(C(C)(C)C)cc(SC(C)(C)Sc3cc(C(C)(C)C)c(O)c(C(C)(C)C)c3)cc2C(C)(C)C)O1` gave a melting point of 44 to 46 °C.
Turning to `CS(=O)(=O)c1ccc(C[C@@H](NC(=O)OCc2ccccc2)[C@H](O)C(=O)O)cc1`, the melting point was in the range of 168 to 172 °C.
Consider `CSc1cc(C)c(O)c(C)c1SC`, for which the melting point was 98 to 100 °C.
Under `CC1(C)Nc2cc(F)c(F)cc2-n2cccc21` stands 123 to 125 °C; under `NS(=O)(=O)c1cc2c(s1)S(=O)(=O)CCN2`, 250 to 252 °C; under `CC(C)(C)OC(=O)C1CCCN(CO)c2c1cc(OCc1ccccc1)c1ccccc21` (centres undefined), 108 to 110 °C.
As to `CS(=O)c1ncc2n1-c1ccc(Cl)cc1C(c1ccccc1F)=NC2` (centres undefined), the melting point lay in the range of 95 to 110 °C.
Consider `CCOC(=O)[C@H](Cc1ccc(O)cc1)NC(=O)c1c(F)cccc1Cl`, for which the melting point lay within 144 to 145 °C.
`Cc1c(F)cccc1CC(=Cc1ccccc1)[N+](=O)[O-]` yielded a melting point of 111 to 112 °C.
The result for `O=c1c(-c2cccc(F)c2)c(CNc2ncnc3[nH]cnc23)oc2ccc(F)cc12` reads 229 to 232 °C; that for `O=C(O)CCC(=O)c1cc(Br)cc(Br)c1`, 137 to 138 °C; that for `NC(=O)c1cc2c3ccccc3[nH]c(=O)n2n1`, 355 to 358 °C.
With `CC(C)(OCc1cc(-c2ccc(Cl)cc2)no1)C(=O)N1CCCCC1`, the melting point was 239 to 242 °C.
The molecule `O=C(NO)c1ccc(OC(=O)C2(c3ccc(OC(=O)c4ccccc4)cc3)CCCCC2)cc1` had a melting point of 114 to 115 °C.
Under `O=C1NCCN1c1ccc(S(=O)(=O)Nc2ccc(OC(F)F)cc2)cc1` stands 198 to 200 °C; under `COc1ccc2ccc(N3C(=O)c4ccccc4C3OCC(=O)CC(C)C)nc2n1` (centres undefined), 120 °C.
`CC12CCC(=O)C=C1CCC1C2=CCC2(C)C(=C=C(Cl)S(=O)c3ccccc3)CCC12` (centres undefined) came in with a melting point of 210 to 213 °C.
Molecule `CCOC(=O)C(C)(OC)C(=O)Nc1cc(Cl)cc(Cl)c1` (centres undefined) showed a melting point of 72 to 75 °C.
Take `S=C1N=c2ccc(OCCN3CCC(Cc4ccccc4)CC3)cc2=N1`: the melting point lay in the range of 273 to 275 °C.
Under `CC(C)(C)C1(C(F)n2cncn2)CO1` (centres undefined) stands 72 to 74 °C.
Under `CC1Oc2ccc(O)cc2C=C1C=O` (centres undefined) stands 107 to 109 °C; under `Nc1cc(=O)n(Cc2ccc([N+](=O)[O-])cc2)[nH]1`, 182 °C.
Under `COc1ccc(-c2cccs2)cc1OC1CCCC1` stands 67 to 68 °C.
For the molecule `CCc1c(C)[nH]c2cc(OCCOc3ccccc3)c(Cl)cc2c1=O`, the melting point is 290 to 292 °C.
Under `O=C(O)c1ccc(OCC(O)CO)cc1O` (centres undefined) stands 151 to 153 °C.
On to `Cc1ccc(-c2cc(OCC(=O)N3CCOCC3)c3c(Cl)cccc3n2)cc1`, for which the melting point stood at 170 °C.
For the molecule `Cc1cccc(Cl)c1NS(=O)(=O)c1nc(N)n(C(=O)Oc2ccccc2)n1`, the melting point was found to be 200 °C.
The result for `COC(=O)[C@H](CC(C)C)NC(=O)c1ccco1` reads 88 to 90 °C.
Under `CS(=O)(=O)c1ccc(-c2cnn(-c3cccc(F)c3)c(=O)c2-c2ccc(F)cc2)cc1` stands 245 to 247 °C; under `COc1cc(/C(C#N)=C\c2ccc(Cl)c(N)c2)cc(OC)c1OC`, 150 to 151 °C.
